Literature values, collected in US11111202B2, “Production of salts of 4-hydroxybutyrate using biobased raw materials” (CJ Cheiljedang Corporation, priority 2012, dated 2021).

Tests used:
[1] = or even longer if large doses have been consumed
[2] = after oral administration

O=C(O)CCCO [GHB, γ-Hydroxybutyric acid]
duration of the effects of GHB [1]: 1.5 to 3 h | time of peak plasma concentration [2]: 20 to 60 min
